US20210299144A1, “USE OF PR[…] TO REDUCE CYST FORMATION IN KIDNEY” (priority 2019, published 2021)

How the values were obtained:
TRPM4 = molecular target: T1, TRPM4 (Mus musculus, UniProt Q7TN37); assay: TRPM4 current in cilia of TRPM3-knockout mIMCD-3 cells; assay type: biochemical, murine; details: 2 mM cytoplasmic MgATP, cilia lacking TRPM3
T1 construct: endogenous in cells; host or cells: mIMCD-3 cell line with TRPM3 knocked out by CRISPR/Cas9; excised primary cilia
Source text: The large-conductance ciliary channel is not detectable unless TRPP2 is expressed. Given the pharmacological similarities between the ciliary TRPP2-dependent channel and TRPM3, we investigated whether the ciliary channel also requires expression of TRPM3. We used an mIMCD-3 cell line in which TRPM3 was knocked out by CRISPR/Cas9 genome editing. In electrical recordings from the primary cilia of cells lacking TRPM3, the large-conductance channel was never seen (n=45, Table 1, TRPM3 KO). […] Knocking out TRPM3 had no effect on the activity of another ciliary channel, TRPM4. In 17 cilia tested from TRPM3-knockout cells, 1 mM cytoplasmic Ca^2+ on average activated a current at +100 mV of 47±7 pA. […] As in cilia of wild-type cells, 2 mM cytoplasmic MgATP blocked the TRPM4 current. […]
All recordings were done under voltage clamp at room temperature (24° C.). […] Total mean channel current was measured as the mean current minus the current attributed to leak channels. The latter was determined from an amplitude histogram. […] Channel open probabilities were determined from amplitude histograms and are reported only when the number of channels in the membrane was unambiguous. The presence or absence of active TRPP2 channels was assessed with the cilium or patch exposed to 3 μM cytoplasmic Ca^2+ and the voltage clamped to +40 mV. […]

[1] = molecular target: T2, ciliary TRPP2-dependent channel (Mus musculus, UniProt J9SQF3); assay: Electrical recording of the large-conductance channel in single excised primary cilia of mIMCD-3 cells; assay type: biochemical, murine; parameters: mean single-channel conductance (slope) / extrapolated reversal potential (x-intercept): dose or concentration left out as unconfirmed; details: for increase of mean channel current (factor): +60 mV
T2 construct: Electrical recordings were made from primary cilia of mIMCD-3 cells; host or cells: mIMCD-3 cells, excised primary cilia (inside-out) or apical membrane patches
Experimental: (§1) Electrical recordings were made from primary cilia of mIMCD-3 cells. mIMCD-3 cells (murine epithelial cells from the renal inner medullary collecting duct, (CRL-2123, American Type Culture Collection, Manassas, Va., USA) were cultured on beads that were free to move in the recording chamber. Suction was applied to a recording pipette so that a single primary cilium entered the pipette. If a resistance of at least 1 GΩ formed between the membrane and the pipette, the cilium was excised from the cell. This left the cilium inside the recording pipette in the inside-out configuration. The pipette containing the cilium could then be transferred among different solutions that bathed the cytoplasmic face of the membrane. In one set of experiments (FIGS. 1 and 2), the external solution was replaced by perfusing the pipette (FIG. 14).
During recording, the beads coated with cells were stored in a standard external solution containing (in mM) NaCl 140, KCl 5, CaCl2 2, MgCl2 2, sodium pyruvate 2, HEPES 5, and D-glucose 9.4, adjusted to pH 7.4 with NaOH. The recording pipettes also contained this solution except as noted. […] The standard cytoplasmic solution contained (in mM) KCl 140, NaCl 5, CaCl2 0.7, MgCl2 2, HEPES 5, BAPTA 2, and D-glucose 5, adjusted to pH 7.4 with KOH. This solution contained 0.1 μM free Ca^2+. To make a cytoplasmic solution with 3 μM free Ca^2+, BAPTA was replaced with dibromoBAPTA, and the total CaCl2 was increased to 1.4 mM. In buffered solutions, concentrations of free Ca^2+ were estimated by the method of Bers (see Bers D M: “A simple method for the accurate determination of free [Ca] in Ca-EGTA solutions” Am J Physiol Cell Physiol. 1982; 242: C404-C408), which is herein incorporated by reference in its entirety.
All recordings were done under voltage clamp at room temperature (24° C.). Equipment, software, and technical details, including corrections for liquid junction potentials, were conducted as described in the article: Kleene S J, Kleene N K. “The native TRPP2-dependent channel of murine renal primary cilia” Am J Physiol Renal Physiol. 2017; 312: F96-F108, which is herein incorporated by reference in its entirety. During acquisition, currents were low-pass filtered at 2 kHz and digitized at 5 kHz. Total mean channel current was measured as the mean current minus the current attributed to leak channels. The latter was determined from an amplitude histogram. […] Channel open probabilities were determined from amplitude histograms and are reported only when the number of channels in the membrane was unambiguous. The presence or absence of active TRPP2 channels was assessed with the cilium or patch exposed to 3 μM cytoplasmic Ca^2+ and the voltage clamped to +40 mV. If no large-conductance channels were seen to open within 2 min, active TRPP2 channels were judged to be absent.

TRPP2-dependent channels = molecular target: T3, TRPP2-dependent channels (Mus musculus, UniProt J9SQF3); assay: Incidences of TRPP2-dependent channels in apical and ciliary membranes; assay type: biochemical, murine; details: for incidence of TRPP2-dependent channels: PS 75 or 230 μM external, 3 μM cytoplasmic Ca2+, +40 mV
T3 construct: Electrical recordings were made from primary cilia of mIMCD-3 cells; host or cells: mIMCD-3 cells, excised primary cilia (inside-out) or apical membrane patches
Experimental: In Table 1, the presence or absence of active TRPP2 channels was assessed with the cilium or apical membrane patch exposed to 3 μM cytoplasmic Ca^2+ and the voltage clamped to +40 mV. If no large-conductance channels were seen to open within 2 min, active TRPP2 channels were judged to be absent. […] PS, pregnenolone sulfate; KO, knockout; ND, not determined.
as §1
All recordings were done under voltage clamp at room temperature (24° C.). Equipment, software, and technical details, including corrections for liquid junction potentials, were conducted as described in the article: Kleene S J, Kleene N K. “The native TRPP2-dependent channel of murine renal primary cilia” Am J Physiol Renal Physiol. 2017; 312: F96-F108, which is herein incorporated by reference in its entirety. During acquisition, currents were low-pass filtered at 2 kHz and digitized at 5 kHz. Total mean channel current was measured as the mean current minus the current attributed to leak channels. The latter was determined from an amplitude histogram. In each cilium reported, the number of large-conductance channels was between 1 and 5. Channel open probabilities were determined from amplitude histograms and are reported only when the number of channels in the membrane was unambiguous. The presence or absence of active TRPP2 channels was assessed with the cilium or patch exposed to 3 μM cytoplasmic Ca^2+ and the voltage clamped to +40 mV. If no large-conductance channels were seen to open within 2 min, active TRPP2 channels were judged to be absent. These cilia have a second Ca^2+-activated channel, TRPM4, but it is not activated by the concentrations of cytoplasmic Ca^2+ used in this study ([…] The half-maximal effect of Ca^2+ on ciliary TRPM4 occurs at 646 μM at +100 mV and 1166 μM at −100 mV.

mIMCD-3 cells = assay: Measuring intracellular calcium (Fura2-AM, F340/F380) in mIMCD-3 cells; assay type: cell-based, murine; details: 200 μM pregnenolone sulfate in 0.4% DMSO
Experimental: Wild-type (WT) mIMCD-3 cells and a clone of mIMCD-3 cells that lacked TRPP2 (TRPP2 KO) were grown to confluence in a 96-well plate and loaded with Fura2-AM, a ratiometric Ca^2+ indicator dye. The ratio of the fluorescence (after background subtraction) at 340 nm and 380 nm (F340/F380) correlates with the cytoplasmic Ca^2+ concentration. […] Unlike in the electrophysiological ciliary recordings, here the apical surface of the cell, including the cilium, is exposed to the pregnenolone sulfate. […] Responses from individual wells are shown as black circles. The experiment was done with two different passages for each cell line for a total of 19 wells per condition.
Wild-type mIMCD-3 cells and one mIMCD-3 clone with TRPP2 knocked out were grown to confluence in a 96-well plate. Standard external solution with 1 mM probenecid was used for all solutions. […] The ratio of the fluorescence (after background subtraction) at 340 nm and 380 nm (F340/F380) indicates the cytoplasmic Ca^2+ concentration and was measured on a BioTek Synergy 4 plate reader. Background fluorescence (wells with cells, 0.01% pluronic acid, and 0.1% DMSO in standard external solution, but no dye) was subtracted from the F340 and F380 readings. […]

T2 sequence (J9SQF3 whole entry): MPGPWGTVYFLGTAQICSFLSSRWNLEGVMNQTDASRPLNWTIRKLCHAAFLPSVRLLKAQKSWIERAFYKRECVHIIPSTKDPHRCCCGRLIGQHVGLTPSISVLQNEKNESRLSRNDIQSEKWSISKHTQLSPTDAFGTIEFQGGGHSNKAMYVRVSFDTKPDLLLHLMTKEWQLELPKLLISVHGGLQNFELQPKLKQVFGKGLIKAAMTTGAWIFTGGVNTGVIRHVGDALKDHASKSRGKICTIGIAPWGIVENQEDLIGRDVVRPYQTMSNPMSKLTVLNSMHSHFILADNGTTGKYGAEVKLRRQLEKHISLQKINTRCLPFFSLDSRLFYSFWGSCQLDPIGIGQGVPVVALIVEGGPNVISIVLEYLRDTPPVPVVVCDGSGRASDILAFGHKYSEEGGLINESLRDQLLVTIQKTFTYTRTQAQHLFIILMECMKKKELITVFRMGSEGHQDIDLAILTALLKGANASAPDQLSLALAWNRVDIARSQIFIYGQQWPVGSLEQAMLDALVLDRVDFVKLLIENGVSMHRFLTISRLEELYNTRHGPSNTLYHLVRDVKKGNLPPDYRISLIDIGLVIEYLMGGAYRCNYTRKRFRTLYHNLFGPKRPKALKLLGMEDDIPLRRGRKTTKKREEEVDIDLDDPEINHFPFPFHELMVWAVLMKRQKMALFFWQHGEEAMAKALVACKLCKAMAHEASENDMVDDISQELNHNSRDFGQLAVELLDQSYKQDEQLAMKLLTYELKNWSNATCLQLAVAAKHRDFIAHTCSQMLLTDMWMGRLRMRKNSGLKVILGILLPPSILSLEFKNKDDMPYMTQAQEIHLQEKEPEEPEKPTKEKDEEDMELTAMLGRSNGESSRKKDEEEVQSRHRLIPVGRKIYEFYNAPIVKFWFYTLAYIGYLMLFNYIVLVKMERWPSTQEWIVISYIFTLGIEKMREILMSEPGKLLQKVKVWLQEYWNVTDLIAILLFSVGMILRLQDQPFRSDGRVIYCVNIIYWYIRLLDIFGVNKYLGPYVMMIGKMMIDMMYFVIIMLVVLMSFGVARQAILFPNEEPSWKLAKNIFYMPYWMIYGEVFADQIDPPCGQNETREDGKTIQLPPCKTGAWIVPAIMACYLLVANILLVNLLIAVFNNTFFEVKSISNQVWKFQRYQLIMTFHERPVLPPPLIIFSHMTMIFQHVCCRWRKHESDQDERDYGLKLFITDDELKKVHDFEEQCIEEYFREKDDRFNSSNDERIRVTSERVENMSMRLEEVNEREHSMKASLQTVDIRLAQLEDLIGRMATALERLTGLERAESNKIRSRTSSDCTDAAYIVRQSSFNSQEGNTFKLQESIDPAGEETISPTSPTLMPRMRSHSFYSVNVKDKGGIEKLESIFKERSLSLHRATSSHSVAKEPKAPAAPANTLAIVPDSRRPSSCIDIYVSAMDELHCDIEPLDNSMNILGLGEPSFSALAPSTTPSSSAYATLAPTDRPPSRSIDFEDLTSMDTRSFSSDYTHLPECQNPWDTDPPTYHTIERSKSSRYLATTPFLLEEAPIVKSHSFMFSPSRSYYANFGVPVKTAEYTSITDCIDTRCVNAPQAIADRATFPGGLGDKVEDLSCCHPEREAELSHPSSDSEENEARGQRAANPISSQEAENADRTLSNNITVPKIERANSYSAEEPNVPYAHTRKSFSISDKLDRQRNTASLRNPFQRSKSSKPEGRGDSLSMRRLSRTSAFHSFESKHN
T3 sequence (J9SQF3 whole entry): as above
T1 sequence (Q7TN37 whole entry): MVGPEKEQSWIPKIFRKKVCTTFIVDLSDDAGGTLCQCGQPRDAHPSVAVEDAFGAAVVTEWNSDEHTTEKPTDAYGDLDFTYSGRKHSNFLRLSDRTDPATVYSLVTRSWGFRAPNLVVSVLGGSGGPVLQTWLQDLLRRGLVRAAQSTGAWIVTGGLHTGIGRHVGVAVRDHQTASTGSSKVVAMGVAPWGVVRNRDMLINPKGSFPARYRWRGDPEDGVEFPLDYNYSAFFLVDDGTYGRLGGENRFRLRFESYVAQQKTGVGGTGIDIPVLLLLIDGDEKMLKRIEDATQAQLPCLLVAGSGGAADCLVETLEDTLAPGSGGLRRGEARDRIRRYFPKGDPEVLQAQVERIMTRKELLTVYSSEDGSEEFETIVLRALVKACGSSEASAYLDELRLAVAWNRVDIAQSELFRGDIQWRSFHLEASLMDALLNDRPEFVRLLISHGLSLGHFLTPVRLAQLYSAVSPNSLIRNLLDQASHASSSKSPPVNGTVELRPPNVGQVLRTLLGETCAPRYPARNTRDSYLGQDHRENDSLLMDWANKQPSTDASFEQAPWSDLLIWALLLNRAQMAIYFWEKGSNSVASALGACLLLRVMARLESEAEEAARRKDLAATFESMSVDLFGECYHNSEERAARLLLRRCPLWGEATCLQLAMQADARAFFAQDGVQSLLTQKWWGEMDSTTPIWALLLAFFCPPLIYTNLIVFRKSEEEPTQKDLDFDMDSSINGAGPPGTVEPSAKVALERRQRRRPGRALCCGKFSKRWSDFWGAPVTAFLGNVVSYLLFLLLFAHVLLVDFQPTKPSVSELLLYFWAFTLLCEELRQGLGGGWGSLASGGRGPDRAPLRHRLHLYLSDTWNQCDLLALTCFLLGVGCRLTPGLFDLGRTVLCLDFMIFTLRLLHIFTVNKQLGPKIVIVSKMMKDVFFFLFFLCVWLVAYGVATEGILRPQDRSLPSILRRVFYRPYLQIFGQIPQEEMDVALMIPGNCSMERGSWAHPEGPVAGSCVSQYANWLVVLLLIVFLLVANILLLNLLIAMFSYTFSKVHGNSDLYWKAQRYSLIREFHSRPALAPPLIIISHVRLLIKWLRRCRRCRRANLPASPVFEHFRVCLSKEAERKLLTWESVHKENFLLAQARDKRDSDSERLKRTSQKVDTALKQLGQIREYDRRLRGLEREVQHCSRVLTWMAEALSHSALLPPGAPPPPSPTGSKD

Nc1ncnc2c1ncn2[C@@H]1O[C@H](COP(=O)(O)OP(=O)([O-])OP(=O)([O-])O)[C@@H](O)[C@H]1O.[Mg+2] [MgATP]
fraction of TRPM4 current remaining after addition of MgATP (TRPM4): 0.34±0.03

Pregnenolone sulfate
k (Boltzmann slope factor) ([1]; 1 μM external PS, 3 μM cytoplasmic Ca2+): 13.5 ± 1.0 mV | V1/2 (potential at which open probability is 0.5) ([1]; 1 μM external PS, 3 μM cytoplasmic Ca2+, Vm −40 to +60 mV): −5.6 ± 1.1 mV | channel activation at 230 μM compared with 75 μM ([1]; 3 μM cytoplasmic Ca2+, FIG. 7): no more effective | k (Boltzmann slope factor) ([1]; 10 μM external PS, 3 μM cytoplasmic Ca2+): 18.3 ± 1.5 mV | V1/2 (potential at which open probability is 0.5) ([1]; 10 μM external PS, 3 μM cytoplasmic Ca2+, Vm −40 to +50 mV): −21.4 ± 1.4 mV | k (Boltzmann slope factor) ([1]; 75 μM external PS, KCl-based external solution, 3 μM cytoplasmic Ca2+): 14.8 ± 0.9 mV | V1/2 (potential at which open probability is 0.5) ([1]; 75 μM external PS, KCl-based external solution, 3 μM cytoplasmic Ca2+, Vm −140 to −20 mV): −67.2 ± 1.0 mV | increase of mean channel current (factor) ([1]; […] μM cytoplasmic pregnenolone sulfate, 0.1 μM cytoplasmic Ca2+): 3.6±0.7 | increase of mean channel current (factor) ([1]; […] μM external (pipette) pregnenolone sulfate, 0.1 μM cytoplasmic free Ca2+): 30±12 | extrapolated reversal potential (x-intercept) ([1]; […] μM external pregnenolone sulfate, standard external solution): −67±2 mV | mean single-channel conductance (slope) ([1]; […] μM external pregnenolone sulfate, standard external solution, fit −40 to +50 mV): 92±3 pS | fraction of the mean channel current remaining after replacing external solution with one lacking pregnenolone sulfate ([1]; after 75 μM external pregnenolone sulfate, −10 mV, free Ca2+ 3): 0.14±0.08 | channel activity (open probability) ([1]; external pregnenolone sulfate up to 75 μM, 0.1 μM cytoplasmic Ca2+, FIG. 5): significantly increased the channel activity | incidence of TRPP2-dependent channels (TRPP2-dependent channels; apical membrane, TRPM3 KO): 0/34 | incidence of TRPP2-dependent channels (TRPP2-dependent channels; apical membrane, TRPP2 KO): 0/30 | incidence of TRPP2-dependent channels (TRPP2-dependent channels; apical membrane, wild type): 3/57 | incidence of TRPP2-dependent channels (TRPP2-dependent channels; ciliary membrane, TRPP2 KO): 0/28 | incidence of TRPP2-dependent channels (TRPP2-dependent channels; ciliary membrane, wild type): 77/259 | cilia in which channels were observed (TRPP2-dependent channels; wild type cilia exposed to pregnenolone sulfate): 30% | cytoplasmic Ca2+ response (Post Stim. F340/F380 − Pre Stim. F340/F380) (mIMCD-3 cells; TRPP2 KO mIMCD-3 cells, compared with wild-type): smaller response | cytoplasmic Ca2+ response (Post Stim. F340/F380 − Pre Stim. F340/F380) (mIMCD-3 cells; wild-type mIMCD-3 cells): increased cytoplasmic Ca^2+
